According to US20240180838A1, “NANOPARTICLE (NP) COMPOSITIONS AND METHODS OF USE THEREOF” (RUTGERS, THE STATE UNIVERSITY OF NEW JERSEY, priority 2022, published 2024):
In brackets after ≈: the same amount, converted by molar mass.

Tests used:
S. aureus = conditions: as reported in the literature; cited from earlier work
[1] = Thermogravimetric analysis, thermal stability; type: physicochemical; conditions: TG curve
Protocol: The amount of RFX loaded in DAMO/SBA is carefully determined by comparing the thermogravimetric (TG) traces of RFX/SBA and its parent material (DAMO-SBA), after normalizing the weight losses of the two curves at 100° C. (i.e., the temperature at which physisorbed water should be completely evaporated) (FIGS. 4A-4B). The comparison is done at 750° C., after most organic groups are removed from the samples. […] The decomposition profiles for pure RFX and copper(II) acetate, which is the salt used to immobilize Cu(II) ions into the material. As expected, RFX completely decomposes after 500° C. as it comprises mostly organic groups.

SMILES	Minimum inhibitory concentrations (MICs) (S. aureus)	onset temperature of degradation [1]
CC[C@H]1OC(=O)[C@H](C)[C@@H](O[C@H]2C[C@@](C)(OC)[C@@H](O)[C@H](C)O2)[C@H](C)[C@@H](O[C@@H]2O[C@H](C)C[C@H](N(C)C)[C@H]2O)[C@](C)(O)C[C@@H](C)C(=O)[C@H](C)[C@@H](O)[C@]1(C)O [ERM, erythromycin]	32 µg/mL (≈ 43.6 µM)	
O=C(Nc1ccc(Oc2ccc(Cl)cc2)c(Cl)c1)c1cc(I)cc(I)c1O [RFX, N-[3-Chloro-4-(4-chlorophenoxy)phenyl]-2-hydroxy-3,5-diiodobenzamide]		200 °C
COc1cc(Cc2cnc(N)nc2N)cc(OC)c1OC [TRM, trimethoprim]	0.19 µg/mL (≈ 0.654 µM)	
